From patent US6498125B2, “Pyridine ketones useful as herbicides” (Syngenta Participations AG, priority 1998, dated 2002) come the findings set out here.

For test [1], the system named is Monocotyledonous and dicotyledonous test plants. In words: Example B1: pre-emergence herbicidal action, 2 kg of AS/ha. The format is in vivo. Conditions: 3 weeks, scale 1-9; for pre-emergence action rating, Avena: test plant Avena; for pre-emergence action rating, Cyperus: test plant Cyperus; for pre-emergence action rating, Setaria: test plant Setaria; for pre-emergence action rating, Sinapis: test plant Sinapis; for pre-emergence action rating, Solanum: test plant Solanum; for pre-emergence action rating, Stellaria: test plant Stellaria. Here is the method: Monocotyledonous and dicotyledonous test plants are sown in standard soil in plastic pots. Immediately after sowing, the test substances are sprayed on (500 l of water/ha) as an aqueous suspension (prepared from a 25% wettable powder (Example F3, b) according to WO 97/34485) or emulsion (prepared from a 25% emulsion concentrate (Example F1, c)), corresponding to a dosage of 2 kg of AS/ha. The test plants are then grown under optimum conditions in a greenhouse. After a test period of 3 weeks, the test is evaluated with a nine-level scale of ratings (1=complete damage, 9=no effect). Ratings of 1 to 4 (in particular 1 to 3) mean good to very good herbicidal action.

For test [2] the test system is unchanged. In words: Example B2: post-emergence herbicidal action, 2 kg of AS/ha. The format is in vivo. Details: key: 1 = complete damage, 9 = no effect. The following applies: 4- to 6-leaf stage, about 18 days; for post-emergence action rating, Avena: test plant Avena; for post-emergence action rating, Setaria: test plant Setaria; for post-emergence action rating, Sinapis: test plant Sinapis; for post-emergence action rating, Solanum: test plant Solanum; for post-emergence action rating, Stellaria: test plant Stellaria. Here is the method: Monocotyledonous and dicotyledonous test plants are grown in plastic pots with standard soil in a greenhouse and, in the 4- to 6-leaf stage, are sprayed with an aqueous suspension of the test substances of the formula 1, prepared from a 25% wettable powder (Example F3, b) according to WO 97134485) or with an emulsion of the test substances of the formula I, prepared from a 25% emulsion concentrate (Example F1, c) according to WO 97/34485), corresponding to a dosage of 2 kg of AS/ha (500 l of water/ha). The test plants are then grown further under optimum conditions in a greenhouse. After a test period of about 18 days, the test is evaluated with a nine-level scale of rating (1=complete damage, 9=no effect). Ratings of 1 to 4 (in particular 1 to 3) mean good to very good herbicidal action. In this test, the compounds of the formula I show strong herbicidal action.

Molecules are shown by their SMILES.

Regarding `C=CC(=O)OC1=C(C(=O)c2ccc(C(F)(F)F)nc2C)C(=O)C2CCC1C2` (stereo not shown) [Compound 1.405], in test [1], the “pre-emergence action rating, Avena” value is listed as 2; the “pre-emergence action rating, Cyperus” value stood at 1; the “pre-emergence action rating, Setaria” value came to 1; the “pre-emergence action rating, Sinapis” value worked out at 1. Also, in test [1], the “pre-emergence action rating, Solanum” value is 1 and the “pre-emergence action rating, Stellaria” value was 2. Further, in test [2] (scale 1-9), the “post-emergence action rating, Avena” value is reported as 2; the “post-emergence action rating, Setaria” value came out at 2; the “post-emergence action rating, Sinapis” value worked out at 1; the “post-emergence action rating, Solanum” value is 2. Moreover, in test [2] (scale 1-9), the “post-emergence action rating, Stellaria” value turned out to be 2.
Regarding `Cc1cc(C(F)(F)F)ncc1C(=O)C1=C(O)C2CCC(C2)C1=O` (stereo not shown) [Compound 1.362], in test [2] (scale 1-9), the “post-emergence action rating, Avena” value was determined as 3; the “post-emergence action rating, Setaria” value is 2; the “post-emergence action rating, Sinapis” value was determined as 1; the “post-emergence action rating, Solanum” value was 2. The “post-emergence action rating, Stellaria” value in test [2] (scale 1-9) is on record as 2.
Consider `CCC(=O)OC1=C(C(=O)c2ccc(C(F)(F)F)nc2C)C(=O)C2CCC1C2` (stereo not shown) [Compound 1.404], for which, in test [1], the “pre-emergence action rating, Avena” value was determined as 2; the “pre-emergence action rating, Cyperus” value amounted to 1; the “pre-emergence action rating, Setaria” value is 1; the “pre-emergence action rating, Sinapis” value came to 2. In test [1], the “pre-emergence action rating, Solanum” value came to 1 and the “pre-emergence action rating, Stellaria” value came to 2. For the same molecule, in test [2] (scale 1-9), the “post-emergence action rating, Avena” value is given as 2; the “post-emergence action rating, Setaria” value was 2; the “post-emergence action rating, Sinapis” value is given as 1; the “post-emergence action rating, Solanum” value is listed as 1. In test [2] (scale 1-9), the “post-emergence action rating, Stellaria” value stood at 2.
Turning to `O=C(C1=C(O)C2CCC(C2)C1=O)c1ccc(C(F)(F)F)nc1C1CC1` (stereo not shown) [Compound 1.042], in test [1], the “pre-emergence action rating, Avena” value came to 4; the “pre-emergence action rating, Cyperus” value amounted to 2; the “pre-emergence action rating, Setaria” value is 2; the “pre-emergence action rating, Sinapis” value was determined as 1. In addition, in test [1], the “pre-emergence action rating, Solanum” value worked out at 1 and the “pre-emergence action rating, Stellaria” value is 4. In addition, in test [2] (scale 1-9), the “post-emergence action rating, Avena” value is listed as 2; the “post-emergence action rating, Setaria” value turned out to be 2; the “post-emergence action rating, Sinapis” value stood at 1; the “post-emergence action rating, Solanum” value was 2. The “post-emergence action rating, Stellaria” value in test [2] (scale 1-9) came out at 2.
With `COCCc1nc(C(F)(F)F)ccc1C(=O)C1=C(O)C2CCC(C2)C1=O` (stereo not shown) [Compound 1.023], in test [1], the “pre-emergence action rating, Avena” value was found to be 2; the “pre-emergence action rating, Cyperus” value is recorded as 2; the “pre-emergence action rating, Setaria” value was 2; the “pre-emergence action rating, Sinapis” value was found to be 1. In addition, in test [1], the “pre-emergence action rating, Solanum” value is listed as 1 and the “pre-emergence action rating, Stellaria” value was 2. In test [2] (scale 1-9), the “post-emergence action rating, Avena” value is recorded as 2; the “post-emergence action rating, Setaria” value turned out to be 2; the “post-emergence action rating, Sinapis” value stood at 1; the “post-emergence action rating, Solanum” value is recorded as 2. Besides, the “post-emergence action rating, Stellaria” value in test [2] (scale 1-9) stood at 2.
With `Cc1nc(C(F)(F)Cl)ccc1C(=O)C1=C(O)C(C)(C)ON(C)C1=O` [Compound 4.124], in test [1], the “pre-emergence action rating, Avena” value is given as 2; the “pre-emergence action rating, Cyperus” value turned out to be 1; the “pre-emergence action rating, Setaria” value is 2; the “pre-emergence action rating, Sinapis” value worked out at 2. Moreover, in test [1], the “pre-emergence action rating, Solanum” value is listed as 1 and the “pre-emergence action rating, Stellaria” value amounted to 2. In addition, in test [2] (scale 1-9), the “post-emergence action rating, Avena” value worked out at 2; the “post-emergence action rating, Setaria” value was found to be 2; the “post-emergence action rating, Sinapis” value came out at 1; the “post-emergence action rating, Solanum” value was 1. Also, the “post-emergence action rating, Stellaria” value in test [2] (scale 1-9) was determined as 2.
With `CCCc1nc(C(F)(F)F)ccc1C(=O)C1=C(O)C2CCC(C2)C1=O` (stereo not shown) [Compound 1.012], in test [2] (scale 1-9), the “post-emergence action rating, Avena” value was 3; the “post-emergence action rating, Setaria” value is listed as 2; the “post-emergence action rating, Sinapis” value is on record as 1; the “post-emergence action rating, Solanum” value is recorded as 2. The “post-emergence action rating, Stellaria” value in test [2] (scale 1-9) was found to be 2.
As for `O=C(C1=C(O)C2CCC(C2)C1=O)c1ccc(C(F)(F)F)nc1C(F)F` (stereo not shown) [Compound 1.005], in test [1], the “pre-emergence action rating, Avena” value is on record as 4; the “pre-emergence action rating, Cyperus” value is on record as 1; the “pre-emergence action rating, Setaria” value stood at 1; the “pre-emergence action rating, Sinapis” value stood at 1. Also, in test [1], the “pre-emergence action rating, Solanum” value came to 1 and the “pre-emergence action rating, Stellaria” value came to 1. In test [2] (scale 1-9), the “post-emergence action rating, Avena” value turned out to be 2; the “post-emergence action rating, Setaria” value stood at 2; the “post-emergence action rating, Sinapis” value is listed as 1; the “post-emergence action rating, Solanum” value turned out to be 2. In test [2] (scale 1-9), the “post-emergence action rating, Stellaria” value amounted to 2.
With `O=C(C1=C(O)C2CCC(C2)C1=O)c1ccc(C(F)(F)F)nc1` (stereo not shown) [Compound 1.01], in test [1], the “pre-emergence action rating, Avena” value came to 2; the “pre-emergence action rating, Cyperus” value came out at 1; the “pre-emergence action rating, Setaria” value is 1; the “pre-emergence action rating, Sinapis” value is 1. In test [1], the “pre-emergence action rating, Solanum” value is reported as 1 and the “pre-emergence action rating, Stellaria” value came out at 2. For the same molecule, in test [2] (scale 1-9, listed as 1.010), the “post-emergence action rating, Avena” value is 2 and the “post-emergence action rating, Stellaria” value was determined as 4. Besides, in test [2] (scale 1-9), the “post-emergence action rating, Setaria” value is 2; the “post-emergence action rating, Sinapis” value worked out at 1; the “post-emergence action rating, Solanum” value was 2.
As to `Cc1nc(C(F)(F)F)ccc1C(=O)C1=C([O-])C2CCC(C2)C1=O.[K+]` (stereo not shown) [Compound 1.376], in test [1], the “pre-emergence action rating, Avena” value is 2; the “pre-emergence action rating, Cyperus” value amounted to 1; the “pre-emergence action rating, Setaria” value is 1; the “pre-emergence action rating, Sinapis” value came out at 2. For the same molecule, in test [1], the “pre-emergence action rating, Solanum” value amounted to 1 and the “pre-emergence action rating, Stellaria” value was found to be 2. Also, in test [2] (scale 1-9), the “post-emergence action rating, Avena” value worked out at 1; the “post-emergence action rating, Setaria” value worked out at 2; the “post-emergence action rating, Sinapis” value was determined as 1; the “post-emergence action rating, Solanum” value came out at 2. The “post-emergence action rating, Stellaria” value in test [2] (scale 1-9) is recorded as 2.
`C#CCOc1nc(C(F)(F)F)ccc1C(=O)C1=C(O)C2CCC(C2)C1=O` (stereo not shown) [Compound 1.048]: in test [2] (scale 1-9), the “post-emergence action rating, Avena” value was determined as 2; the “post-emergence action rating, Setaria” value is recorded as 1; the “post-emergence action rating, Sinapis” value came out at 1; the “post-emergence action rating, Solanum” value was found to be 1. Besides, in test [2] (scale 1-9), the “post-emergence action rating, Stellaria” value is given as 2.
In the case of `CCC1=CC(C)(C)C(O)=C(C(=O)c2ccc(C(F)(F)F)nc2C)C1=O` [Compound 5.081], in test [2] (scale 1-9), the “post-emergence action rating, Avena” value was 3; the “post-emergence action rating, Setaria” value was 2; the “post-emergence action rating, Sinapis” value was found to be 1; the “post-emergence action rating, Solanum” value was 1. Further, the “post-emergence action rating, Stellaria” value in test [2] (scale 1-9) was 2.
With `CS(=O)(=O)Cc1nc(C(F)(F)F)ccc1C(=O)C1=C(O)C2CCC(C2)C1=O` (stereo not shown) [Compound 1.026], in test [2] (scale 1-9), the “post-emergence action rating, Avena” value is reported as 3; the “post-emergence action rating, Setaria” value is recorded as 1; the “post-emergence action rating, Sinapis” value was found to be 1; the “post-emergence action rating, Solanum” value is listed as 1. Besides, the “post-emergence action rating, Stellaria” value in test [2] (scale 1-9) was found to be 2.
Turning to `O=C(C1=C(O)C2CCC(C2)C1=O)c1ccc(C(F)(F)F)nc1C(F)(F)F` (stereo not shown) [Compound 1.008], in test [2] (scale 1-9), the “post-emergence action rating, Avena” value was found to be 2; the “post-emergence action rating, Setaria” value is 2; the “post-emergence action rating, Sinapis” value is 1; the “post-emergence action rating, Solanum” value was found to be 2. For the same molecule, in test [2] (scale 1-9), the “post-emergence action rating, Stellaria” value is 2.
For `O=C(C1=C(O)C2CCC(C2)C1=O)c1ccc(C(F)(F)F)nc1` (stereo not shown) [Compound 1.001], in test [2] (scale 1-9), the “post-emergence action rating, Avena” value was 3; the “post-emergence action rating, Setaria” value is listed as 2; the “post-emergence action rating, Sinapis” value came out at 1; the “post-emergence action rating, Solanum” value amounted to 2. For the same molecule, in test [2] (scale 1-9), the “post-emergence action rating, Stellaria” value is listed as 2.
In the case of `CCc1nc(C(F)(F)F)ccc1C(=O)C1=C(O)C(C)(C)ON(C)C1=O` [Compound 4.01], in test [2] (scale 1-9), the “post-emergence action rating, Avena” value is 3; the “post-emergence action rating, Setaria” value amounted to 3; the “post-emergence action rating, Sinapis” value came out at 2; the “post-emergence action rating, Solanum” value turned out to be 2. For the same molecule, in test [2] (scale 1-9), the “post-emergence action rating, Stellaria” value is 2.
For the molecule `Cc1nc(C(F)(F)F)ccc1C(=O)C1=C(O)C(C)(C)C=CC1=O` [Compound 5.085], in test [2] (scale 1-9), the “post-emergence action rating, Avena” value came to 3; the “post-emergence action rating, Setaria” value is reported as 2; the “post-emergence action rating, Sinapis” value worked out at 1; the “post-emergence action rating, Solanum” value is reported as 2. In test [2] (scale 1-9), the “post-emergence action rating, Stellaria” value turned out to be 2.
